According to ChEMBL document CHEMBL4507302, “Data for DCP probe TP-020” (2021):

Legend:
[1] = target: AP2-associated protein kinase 1 (Homo sapiens) (UniProt Q2M2I8); conditions: Compound concentration 1000.0 nM
[2] = test system: Tyrosine-protein kinase ABL1 (Homo sapiens), P00519 [F317I]; conditions: Compound concentration 1000.0 nM
[3] = test system: Tyrosine-protein kinase ABL1 (Homo sapiens), P00519 [F317L]; conditions: Compound concentration 1000.0 nM
[4] = test system: ALK tyrosine kinase receptor (Homo sapiens), Q9UM73 [L1196M]; conditions: Compound concentration 1000.0 nM
[5] = target: Aurora kinase B (Homo sapiens) (UniProt Q96GD4); conditions: Compound concentration 1000.0 nM
[6] = target: Calcium/calmodulin-dependent protein kinase type 1B (Homo sapiens) (UniProt Q6P2M8); conditions: Compound concentration 1000.0 nM
[7] = target: Cyclin-dependent kinase 11A (Homo sapiens) (UniProt Q9UQ88); conditions: Compound concentration 1000.0 nM
[8] = target: Cyclin-dependent kinase 4 (Homo sapiens) (UniProt P11802); conditions: Compound concentration 1000.0 nM
[9] = target: Casein kinase I isoform epsilon (Homo sapiens) (UniProt P49674); conditions: Compound concentration 1000.0 nM
[10] = target: Serine/threonine-protein kinase DCLK1 (Homo sapiens) (UniProt O15075); conditions: Compound concentration 1000.0 nM
[11] = target: Serine/threonine-protein kinase 17A (Homo sapiens) (UniProt Q9UEE5); conditions: Compound concentration 1000.0 nM
[12] = target: Ephrin type-A receptor 1 (Homo sapiens) (UniProt P21709); conditions: Compound concentration 1000.0 nM
[13] = target: Ephrin type-A receptor 4 (Homo sapiens) (UniProt P54764); conditions: Compound concentration 1000.0 nM
[14] = target: Ephrin type-A receptor 5 (Homo sapiens) (UniProt P54756); conditions: Compound concentration 1000.0 nM
[15] = target: Ephrin type-A receptor 8 (Homo sapiens) (UniProt P29322); conditions: Compound concentration 1000.0 nM
[16] = target: Ephrin type-B receptor 4 (Homo sapiens) (UniProt P54760); conditions: Compound concentration 1000.0 nM
[17] = target: Mitogen-activated protein kinase 6 (Homo sapiens) (UniProt Q16659); conditions: Compound concentration 1000.0 nM
[18] = test system: Receptor-type tyrosine-protein kinase FLT3 (Homo sapiens), P36888 [K663Q]; conditions: Compound concentration 1000.0 nM
[19] = target: G protein-coupled receptor kinase 4 (Homo sapiens) (UniProt P32298); conditions: Compound concentration 1000.0 nM
[20] = target: Glycogen synthase kinase-3 alpha (Homo sapiens) (UniProt P49840); conditions: Compound concentration 1000.0 nM
[21] = target: Glycogen synthase kinase-3 beta (Homo sapiens) (UniProt P49841); conditions: Compound concentration 1000.0 nM
[22] = target: Hormonally up-regulated neu tumor-associated kinase (Homo sapiens) (UniProt P57058); conditions: Compound concentration 1000.0 nM
[23] = target: Inhibitor of nuclear factor kappa-B kinase subunit beta (Homo sapiens) (UniProt O14920); conditions: Compound concentration 1000.0 nM
[24] = target: Interleukin-1 receptor-associated kinase 4 (Homo sapiens) (UniProt Q9NWZ3); conditions: Compound concentration 1000.0 nM
[25] = target: Leucine-rich repeat serine/threonine-protein kinase 2 (Homo sapiens) (UniProt Q5S007); conditions: Compound concentration 1000.0 nM
[26] = test system: Leucine-rich repeat serine/threonine-protein kinase 2 (Homo sapiens), Q5S007 [G2019S]; conditions: Compound concentration 1000.0 nM
[27] = target: MAP kinase-activated protein kinase 5 (Homo sapiens) (UniProt Q8IW41); conditions: Compound concentration 1000.0 nM
[28] = target: Mitogen-activated protein kinase 12 (Homo sapiens) (UniProt P53778); conditions: Compound concentration 1000.0 nM
[29] = target: Cyclin-dependent kinase 14 (Homo sapiens) (UniProt O94921); conditions: Compound concentration 1000.0 nM
[30] = test system: Phosphatidylinositol 4,5-bisphosphate 3-kinase catalytic subunit alpha isoform (Homo sapiens), P42336 [I800L]; conditions: Compound concentration 1000.0 nM
[31] = target: Phosphatidylinositol 4,5-bisphosphate 3-kinase catalytic subunit gamma isoform (Homo sapiens) (UniProt P48736); conditions: Compound concentration 1000.0 nM
[32] = target: Serine/threonine-protein kinase PknB (Mycobacterium tuberculosis) (UniProt P9WI81); conditions: Compound concentration 1000.0 nM
[33] = target: Protein kinase C iota type (Homo sapiens) (UniProt P41743); conditions: Compound concentration 1000.0 nM
[34] = target: Ribosomal protein S6 kinase alpha-1 (Homo sapiens) (UniProt Q15418); conditions: Compound concentration 1000.0 nM
[35] = target: Ribosomal protein S6 kinase alpha-2 (Homo sapiens) (UniProt Q15349); conditions: Compound concentration 1000.0 nM
[36] = target: Ribosomal protein S6 kinase beta-1 (Homo sapiens) (UniProt P23443); conditions: Compound concentration 1000.0 nM
[37] = target: Tyrosine-protein kinase Tec (Homo sapiens) (UniProt P42680); conditions: Compound concentration 1000.0 nM
[38] = target: Serine/threonine-protein kinase TNNI3K (Homo sapiens) (UniProt Q59H18); conditions: Compound concentration 1000.0 nM
[39] = target: Transient receptor potential cation channel subfamily M member 6 (Homo sapiens) (UniProt Q9BX84); conditions: Compound concentration 1000.0 nM
[40] = target: Serine/threonine-protein kinase WNK2 (Homo sapiens) (UniProt Q9Y3S1); conditions: Compound concentration 1000.0 nM
[41] = target: 5-hydroxytryptamine receptor 7 (Homo sapiens) (UniProt P34969); conditions: Compound concentration 10.0 uM
[42] = target: D(3) dopamine receptor (Homo sapiens) (UniProt P35462); conditions: Compound concentration 10.0 uM
[43] = target: Alpha-1B adrenergic receptor (Homo sapiens) (UniProt P35368); conditions: Compound concentration 10.0 uM
[44] = target: Beta-2 adrenergic receptor (Homo sapiens) (UniProt P07550); conditions: Compound concentration 10.0 uM
[45] = target: Muscarinic acetylcholine receptor M5 (Homo sapiens) (UniProt P08912); conditions: Compound concentration 10.0 uM

Chain of MAP kinase-activated protein kinase 5 (Homo sapiens) (Q8IW41 whole entry): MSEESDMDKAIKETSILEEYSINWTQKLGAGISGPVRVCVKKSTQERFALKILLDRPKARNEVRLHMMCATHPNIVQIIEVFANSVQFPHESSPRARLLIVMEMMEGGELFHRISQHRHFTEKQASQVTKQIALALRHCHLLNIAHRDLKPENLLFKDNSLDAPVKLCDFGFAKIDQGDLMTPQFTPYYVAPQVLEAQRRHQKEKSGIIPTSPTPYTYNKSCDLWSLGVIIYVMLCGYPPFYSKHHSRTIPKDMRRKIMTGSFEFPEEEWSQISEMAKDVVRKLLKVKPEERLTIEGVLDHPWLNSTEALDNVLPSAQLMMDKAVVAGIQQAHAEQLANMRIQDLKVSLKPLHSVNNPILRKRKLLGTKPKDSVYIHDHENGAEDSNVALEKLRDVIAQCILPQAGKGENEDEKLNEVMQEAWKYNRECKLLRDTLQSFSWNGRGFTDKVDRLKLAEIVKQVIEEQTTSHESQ
Chain of Protein kinase C iota type (Homo sapiens) (P41743 whole entry): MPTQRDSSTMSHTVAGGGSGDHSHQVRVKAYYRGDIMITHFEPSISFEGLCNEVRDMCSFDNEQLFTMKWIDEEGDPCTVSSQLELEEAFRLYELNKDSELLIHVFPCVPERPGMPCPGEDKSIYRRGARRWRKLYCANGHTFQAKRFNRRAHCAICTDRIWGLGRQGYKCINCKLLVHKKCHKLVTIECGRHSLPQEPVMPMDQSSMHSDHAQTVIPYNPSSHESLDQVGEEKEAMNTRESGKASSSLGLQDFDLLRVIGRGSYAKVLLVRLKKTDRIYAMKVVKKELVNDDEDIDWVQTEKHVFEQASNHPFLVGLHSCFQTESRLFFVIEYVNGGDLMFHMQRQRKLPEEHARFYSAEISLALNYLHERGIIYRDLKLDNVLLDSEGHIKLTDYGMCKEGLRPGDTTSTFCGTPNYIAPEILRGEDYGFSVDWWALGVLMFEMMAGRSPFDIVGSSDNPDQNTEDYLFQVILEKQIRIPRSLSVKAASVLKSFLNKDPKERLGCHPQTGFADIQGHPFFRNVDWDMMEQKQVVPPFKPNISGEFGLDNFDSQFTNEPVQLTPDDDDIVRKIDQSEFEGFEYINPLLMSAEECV
Chain of Ephrin type-A receptor 8 (Homo sapiens) (P29322 whole entry): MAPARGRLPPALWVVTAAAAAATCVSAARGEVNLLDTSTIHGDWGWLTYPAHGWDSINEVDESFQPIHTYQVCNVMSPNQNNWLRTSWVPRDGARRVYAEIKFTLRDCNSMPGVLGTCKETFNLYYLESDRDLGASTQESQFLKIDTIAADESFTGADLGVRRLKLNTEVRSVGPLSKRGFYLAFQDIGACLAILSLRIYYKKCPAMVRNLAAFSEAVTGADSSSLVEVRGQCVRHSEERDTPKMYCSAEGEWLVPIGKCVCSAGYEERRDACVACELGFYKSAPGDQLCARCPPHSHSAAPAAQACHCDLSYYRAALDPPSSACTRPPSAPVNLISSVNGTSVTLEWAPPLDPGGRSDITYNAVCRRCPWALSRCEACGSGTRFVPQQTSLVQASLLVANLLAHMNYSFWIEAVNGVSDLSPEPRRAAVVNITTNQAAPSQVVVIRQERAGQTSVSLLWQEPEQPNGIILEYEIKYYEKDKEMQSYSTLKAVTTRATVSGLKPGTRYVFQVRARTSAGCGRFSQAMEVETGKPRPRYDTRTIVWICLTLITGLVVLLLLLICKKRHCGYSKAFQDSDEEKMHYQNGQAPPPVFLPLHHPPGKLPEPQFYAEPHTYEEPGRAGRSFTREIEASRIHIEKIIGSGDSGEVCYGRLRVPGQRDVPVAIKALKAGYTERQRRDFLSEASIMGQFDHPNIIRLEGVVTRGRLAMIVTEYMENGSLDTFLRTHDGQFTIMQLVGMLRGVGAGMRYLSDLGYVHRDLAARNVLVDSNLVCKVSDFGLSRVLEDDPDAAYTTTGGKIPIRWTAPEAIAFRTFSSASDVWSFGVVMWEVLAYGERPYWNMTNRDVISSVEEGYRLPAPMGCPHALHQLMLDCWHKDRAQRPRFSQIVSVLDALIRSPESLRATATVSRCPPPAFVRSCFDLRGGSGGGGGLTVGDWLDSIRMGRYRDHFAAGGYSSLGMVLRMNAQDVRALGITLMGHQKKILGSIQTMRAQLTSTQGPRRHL
Chain of Ephrin type-B receptor 4 (Homo sapiens) (P54760 whole entry): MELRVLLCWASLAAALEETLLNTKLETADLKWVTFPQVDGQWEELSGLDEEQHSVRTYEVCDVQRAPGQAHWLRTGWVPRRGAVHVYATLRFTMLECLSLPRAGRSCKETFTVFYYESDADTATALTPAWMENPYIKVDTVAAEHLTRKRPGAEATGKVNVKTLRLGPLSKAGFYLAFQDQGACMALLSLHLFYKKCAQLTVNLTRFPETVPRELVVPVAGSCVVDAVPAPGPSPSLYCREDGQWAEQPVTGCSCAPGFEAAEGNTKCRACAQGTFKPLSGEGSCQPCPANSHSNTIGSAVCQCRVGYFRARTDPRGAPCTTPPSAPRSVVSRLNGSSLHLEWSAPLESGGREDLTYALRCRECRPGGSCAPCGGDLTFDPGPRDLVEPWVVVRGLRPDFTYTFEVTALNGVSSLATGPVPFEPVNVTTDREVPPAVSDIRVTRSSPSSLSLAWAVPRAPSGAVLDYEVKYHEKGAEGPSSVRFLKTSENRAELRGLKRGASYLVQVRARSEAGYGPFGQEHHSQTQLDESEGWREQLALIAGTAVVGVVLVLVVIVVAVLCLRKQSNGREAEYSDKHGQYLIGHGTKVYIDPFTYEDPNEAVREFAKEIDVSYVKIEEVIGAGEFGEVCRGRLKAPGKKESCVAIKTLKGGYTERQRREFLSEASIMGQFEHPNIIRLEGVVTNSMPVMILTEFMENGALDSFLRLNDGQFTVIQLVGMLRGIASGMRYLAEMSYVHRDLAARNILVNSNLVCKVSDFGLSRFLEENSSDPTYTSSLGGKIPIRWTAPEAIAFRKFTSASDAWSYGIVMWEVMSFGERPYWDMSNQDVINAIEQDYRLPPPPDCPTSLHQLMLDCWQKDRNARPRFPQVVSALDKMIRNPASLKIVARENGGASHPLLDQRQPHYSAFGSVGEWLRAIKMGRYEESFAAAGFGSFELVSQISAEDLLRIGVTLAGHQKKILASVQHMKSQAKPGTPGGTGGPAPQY
Chain of Serine/threonine-protein kinase TNNI3K (Homo sapiens) (Q59H18 whole entry): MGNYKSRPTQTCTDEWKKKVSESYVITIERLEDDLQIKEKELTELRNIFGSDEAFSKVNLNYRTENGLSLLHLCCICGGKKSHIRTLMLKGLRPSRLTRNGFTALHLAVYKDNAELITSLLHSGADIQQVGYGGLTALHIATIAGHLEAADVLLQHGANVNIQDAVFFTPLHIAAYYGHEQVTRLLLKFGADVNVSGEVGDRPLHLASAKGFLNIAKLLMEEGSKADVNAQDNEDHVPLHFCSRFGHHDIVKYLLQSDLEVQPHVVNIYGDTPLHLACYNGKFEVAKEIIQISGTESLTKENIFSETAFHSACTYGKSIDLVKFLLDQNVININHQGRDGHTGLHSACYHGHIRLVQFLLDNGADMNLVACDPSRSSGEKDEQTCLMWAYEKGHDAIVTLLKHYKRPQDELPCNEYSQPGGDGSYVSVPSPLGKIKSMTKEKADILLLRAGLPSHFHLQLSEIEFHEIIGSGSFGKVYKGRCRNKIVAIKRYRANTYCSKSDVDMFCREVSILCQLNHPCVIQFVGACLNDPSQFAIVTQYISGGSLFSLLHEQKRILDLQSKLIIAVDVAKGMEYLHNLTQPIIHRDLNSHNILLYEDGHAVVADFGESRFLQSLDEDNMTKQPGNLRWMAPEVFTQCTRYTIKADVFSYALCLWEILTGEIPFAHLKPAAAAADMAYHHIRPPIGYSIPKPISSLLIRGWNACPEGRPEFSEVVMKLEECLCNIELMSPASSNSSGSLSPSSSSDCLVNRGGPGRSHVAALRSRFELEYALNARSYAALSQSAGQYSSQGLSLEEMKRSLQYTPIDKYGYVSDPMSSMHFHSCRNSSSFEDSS
Chain of Cyclin-dependent kinase 14 (Homo sapiens) (O94921 whole entry, canonical isoform): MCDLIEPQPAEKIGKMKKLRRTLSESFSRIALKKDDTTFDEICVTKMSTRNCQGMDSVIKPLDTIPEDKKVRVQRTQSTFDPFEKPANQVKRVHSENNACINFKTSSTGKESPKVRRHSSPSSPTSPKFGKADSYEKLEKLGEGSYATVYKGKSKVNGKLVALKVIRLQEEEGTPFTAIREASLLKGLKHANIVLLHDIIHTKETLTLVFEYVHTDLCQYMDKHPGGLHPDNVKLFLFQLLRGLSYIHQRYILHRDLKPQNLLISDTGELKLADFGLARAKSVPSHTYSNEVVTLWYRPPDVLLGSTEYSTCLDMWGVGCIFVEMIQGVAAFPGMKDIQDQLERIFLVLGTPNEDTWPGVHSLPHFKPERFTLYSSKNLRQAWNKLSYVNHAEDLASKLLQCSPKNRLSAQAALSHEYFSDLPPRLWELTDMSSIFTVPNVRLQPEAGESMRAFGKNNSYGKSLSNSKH
Chain of Glycogen synthase kinase-3 beta (Homo sapiens) (P49841 whole entry, looked up): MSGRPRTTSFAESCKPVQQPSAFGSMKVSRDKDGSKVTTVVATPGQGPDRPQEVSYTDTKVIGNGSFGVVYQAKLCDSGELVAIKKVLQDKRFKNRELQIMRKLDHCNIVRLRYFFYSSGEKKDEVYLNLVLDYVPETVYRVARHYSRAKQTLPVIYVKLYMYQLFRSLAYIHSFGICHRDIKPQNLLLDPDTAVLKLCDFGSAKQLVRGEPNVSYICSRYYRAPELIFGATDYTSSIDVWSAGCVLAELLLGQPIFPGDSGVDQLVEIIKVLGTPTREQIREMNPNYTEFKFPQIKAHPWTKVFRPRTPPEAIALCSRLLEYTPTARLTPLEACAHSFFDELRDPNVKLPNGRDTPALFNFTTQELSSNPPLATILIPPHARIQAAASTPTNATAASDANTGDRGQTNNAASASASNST

Nc1cnc(N2CCc3cc(S(=O)(=O)Nc4c(F)cc(Cl)cc4F)cc(N4CCCC4=O)c32)nc1
residual activity [1]: 100%
residual activity [2]: 100%
residual activity [3]: 99%
residual activity [4]: 81%
residual activity [5]: 98%
residual activity [6]: 67%
residual activity [7]: 89%
residual activity [8]: 86%
residual activity [9]: 89%
residual activity [10]: 100%
residual activity [11]: 100%
residual activity [12]: 99%
residual activity [13]: 100%
residual activity [14]: 100%
residual activity [15]: 100%
residual activity [16]: 100%
residual activity [17]: 100%
residual activity [18]: 97%
residual activity [19]: 100%
residual activity [20]: 100%
residual activity [21]: 100%
residual activity [22]: 99%
residual activity [23]: 96%
residual activity [24]: 100%
residual activity [25]: 97%
residual activity [26]: 81%
residual activity [27]: 92%
residual activity [28]: 100%
residual activity [29]: 100%
residual activity [30]: 80%
residual activity [31]: 81%
residual activity [32]: 96%
residual activity [33]: 100%
residual activity [34]: 100%
residual activity [35]: 88%
residual activity [36]: 83%
residual activity [37]: 99%
residual activity [38]: 49%
residual activity [39]: 93%
residual activity [40]: 100%
inhibition [41]: 0.94%
inhibition [42]: 7.41%
inhibition [43]: 4.68%
inhibition [44]: -3.08%
inhibition [45]: 1.45%

Cn1nc(C(F)(F)F)cc1-c1cnc(N2CCc3cc(S(=O)(=O)Nc4c(F)cc(Cl)cc4F)cc(N4CCCC4=O)c32)nc1 [TP-020]
residual activity [1]: 100%
residual activity [2]: 85%
residual activity [3]: 60%
residual activity [4]: 78%
residual activity [5]: 86%
residual activity [6]: 80%
residual activity [7]: 100%
residual activity [8]: 82%
residual activity [9]: 86%
residual activity [10]: 93%
residual activity [11]: 83%
residual activity [12]: 100%
residual activity [13]: 97%
residual activity [14]: 94%
residual activity [15]: 65%
residual activity [16]: 99%
residual activity [17]: 100%
residual activity [18]: 100%
residual activity [19]: 100%
residual activity [20]: 95%
residual activity [21]: 100%
residual activity [22]: 68%
residual activity [23]: 81%
residual activity [24]: 82%
residual activity [25]: 79%
residual activity [26]: 93%
residual activity [27]: 95%
residual activity [28]: 83%
residual activity [29]: 100%
residual activity [30]: 77%
residual activity [31]: 88%
residual activity [32]: 100%
residual activity [33]: 94%
residual activity [34]: 96%
residual activity [35]: 100%
residual activity [36]: 78%
residual activity [37]: 79%
residual activity [38]: 65%
residual activity [39]: 79%
residual activity [40]: 81%
inhibition [41]: 4.51%
inhibition [42]: 2.14%
inhibition [43]: 4.33%
inhibition [44]: 17.4%
inhibition [45]: 7.43%
